Reference: PubChem BioAssay (NCI)
Values joined by “and” are separate entries in the source; they are usually repeats but may differ in a detail not shown here. Equal entries are not always repeated.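 Assay format: 96-well plates, 48-hour exposure. The concentration for 50% growth inhibition is given as GI50. At the TGI there is no net growth.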

What was measured:
Assay in all cases: growth of human tumour cells (NCI), 48 h
MDA-MB-435 = tested on: MDA-MB-435
KM12 colon = tested on: KM12 colon
TK-10 renal = tested on: TK-10 renal
DMS 273 small cell lung = tested on: DMS 273 small cell lung
OVCAR-4 ovarian = tested on: OVCAR-4 ovarian
SK-MEL-2 melanoma = tested on: SK-MEL-2 melanoma
XF 498 CNS = tested on: XF 498 CNS
SF-539 CNS = tested on: SF-539 CNS
786-0 renal = tested on: 786-0 renal
OVCAR-8 ovarian = tested on: OVCAR-8 ovarian
SNB-19 CNS = tested on: SNB-19 CNS
U251 CNS = tested on: U251 CNS
SK-OV-3 ovarian = tested on: SK-OV-3 ovarian
KM20L2 colon = tested on: KM20L2 colon
EKVX NSCLC = tested on: EKVX NSCLC
SF-268 CNS = tested on: SF-268 CNS
A498 renal = tested on: A498 renal
NCI-H522 lung = tested on: NCI-H522 lung
RXF 393 renal = tested on: RXF 393 renal
MOLT-4 leukemia = tested on: MOLT-4 leukemia
HCT-116 colon = tested on: HCT-116 colon
COLO 205 colon = tested on: COLO 205 colon
OVCAR-3 ovarian = tested on: OVCAR-3 ovarian
SF-295 CNS = tested on: SF-295 CNS
K-562 leukemia = tested on: K-562 leukemia
SN12C renal = tested on: SN12C renal
UACC-257 melanoma = tested on: UACC-257 melanoma
LXFL 529 NSCLC = tested on: LXFL 529 NSCLC
UO-31 renal = tested on: UO-31 renal
NCI/ADR-RES ovarian = tested on: NCI/ADR-RES ovarian
DU-145 prostate = tested on: DU-145 prostate
MDA-MB-231 breast = tested on: MDA-MB-231 breast
SNB-78 CNS = tested on: SNB-78 CNS
HS 578T breast = tested on: HS 578T breast
CCRF-CEM leukemia = tested on: CCRF-CEM leukemia
OVCAR-5 ovarian = tested on: OVCAR-5 ovarian
MCF7 breast = tested on: MCF7 breast
NCI-H23 lung = tested on: NCI-H23 lung
IGROV1 ovarian = tested on: IGROV1 ovarian
M19-MEL melanoma = tested on: M19-MEL melanoma
HOP-62 NSCLC = tested on: HOP-62 NSCLC
HCC-2998 colon = tested on: HCC-2998 colon
MDA-N = tested on: MDA-N
BT-549 breast = tested on: BT-549 breast
A549 NSCLC = tested on: A549 NSCLC
SK-MEL-5 melanoma = tested on: SK-MEL-5 melanoma
RPMI-8226 leukemia = tested on: RPMI-8226 leukemia
LOX IMVI melanoma = tested on: LOX IMVI melanoma
HOP-18 NSCLC = tested on: HOP-18 NSCLC
HOP-92 NSCLC = tested on: HOP-92 NSCLC
HL-60(TB) leukemia = tested on: HL-60(TB) leukemia
MALME-3M melanoma = tested on: MALME-3M melanoma
NCI-H226 lung = tested on: NCI-H226 lung
CAKI-1 renal = tested on: CAKI-1 renal
SNB-75 CNS = tested on: SNB-75 CNS
M14 melanoma = tested on: M14 melanoma
SW-620 colon = tested on: SW-620 colon
PC-3 prostate = tested on: PC-3 prostate
SK-MEL-28 melanoma = tested on: SK-MEL-28 melanoma
HCT-15 colon = tested on: HCT-15 colon
DMS 114 small cell lung = tested on: DMS 114 small cell lung
ACHN renal = tested on: ACHN renal

For `COc1cccc2c1C(=O)c1c(O)c3c(c(O)c1C2=O)CC(O)(C(O)CO)CC3OC1CC(N2CCOCC2)C(O)C(C)O1` (stereo unspecified), the TGI (MDA-MB-435) was 56.8 nM, the TGI (KM12 colon) was 114 nM and the GI50 (TK-10 renal) was 23.3 nM. For the same compound, the TGI (DMS 273 small cell lung) was 10.9 nM and 42.9 nM, the GI50 (OVCAR-4 ovarian) was 14.5 nM and the TGI (SK-MEL-2 melanoma) was 11.7 nM. For the same compound, the TGI (XF 498 CNS) was 47.8 nM, the GI50 (SF-539 CNS) was 18.7 nM and the TGI (SF-539 CNS) was 14 nM and 74.4 nM. For the same compound, the GI50 (786-0 renal) was under 1 nM, the TGI (786-0 renal) was 148 nM and 98.9 nM and the TGI (OVCAR-8 ovarian) was 28.1 nM. The GI50 (SNB-19 CNS) was 30.5 nM, the TGI (SNB-19 CNS) was 139 nM and 801 nM and the GI50 (U251 CNS) was 15.5 nM. For the same compound, the TGI (U251 CNS) was 1260 nM and 1050 nM, the GI50 (SK-OV-3 ovarian) was 57.9 nM and the TGI (KM20L2 colon) was 94.3 nM. For the same compound, the GI50 (EKVX NSCLC) was 30.4 nM, the TGI (EKVX NSCLC) was 33.4 nM and 146 nM and the GI50 (SF-268 CNS) was 26.5 nM. For the same compound, the TGI (SF-268 CNS) was 16.6 nM and 158 nM, the GI50 (A498 renal) was 13.9 nM and the GI50 (NCI-H522 lung) was 26.4 nM. The TGI (NCI-H522 lung) was 17.2 nM and 95.6 nM, the GI50 (RXF 393 renal) was under 1 nM and the GI50 (MOLT-4 leukemia) was 9.7 nM and 24.3 nM. For the same compound, the TGI (MOLT-4 leukemia) was 205 nM and 185 nM, the TGI (HCT-116 colon) was 143 nM and the GI50 (COLO 205 colon) was 27.8 nM. The GI50 (OVCAR-3 ovarian) was 32.3 nM, the GI50 (SF-295 CNS) was 24.3 nM and the TGI (SF-295 CNS) was 71.8 nM and 106 nM. It also gave a TGI (K-562 leukemia) of 1610 nM, a GI50 (SN12C renal) of 18.6 nM and a GI50 (UACC-257 melanoma) of 19.9 nM. The TGI (UACC-257 melanoma) was 13 nM and 42.4 nM, the TGI (LXFL 529 NSCLC) was 55.3 nM and the GI50 (UO-31 renal) was 3.98 nM and 21.3 nM. For the same compound, the TGI (UO-31 renal) was 31.4 nM and 65.2 nM, the TGI (NCI/ADR-RES ovarian) was 310 nM and the TGI (DU-145 prostate) was 3.31 µM. For the same compound, the TGI (MDA-MB-231 breast) was 243 nM, the GI50 (SNB-78 CNS) was under 1 nM and the TGI (SNB-78 CNS) was 32.3 nM and 188 nM. It also gave a TGI (HS 578T breast) of 214 nM, a TGI (CCRF-CEM leukemia) of 221 nM and a GI50 (OVCAR-5 ovarian) of 33.1 nM. The TGI (OVCAR-5 ovarian) was 92.6 nM and 93.5 nM, the TGI (MCF7 breast) was 89.5 nM and the GI50 (NCI-H23 lung) was 17.4 nM. For the same compound, the TGI (NCI-H23 lung) was 24.9 nM and 41.9 nM, the GI50 (IGROV1 ovarian) was 28.8 nM and the GI50 (M19-MEL melanoma) was under 1 nM. For the same compound, the GI50 (HOP-62 NSCLC) was 26.2 nM, the TGI (HOP-62 NSCLC) was 56.6 nM and 81 nM and the TGI (HCC-2998 colon) was 3.72 nM and 30.4 nM. The TGI (MDA-N) was 100 nM, the TGI (BT-549 breast) was 206 nM and the TGI (A549 NSCLC) was 472 nM. The GI50 (SK-MEL-5 melanoma) was 17 nM, the TGI (SK-MEL-5 melanoma) was 5.53 nM and 33.2 nM and the GI50 (RPMI-8226 leukemia) was 19.1 nM. For the same compound, the TGI (RPMI-8226 leukemia) was 147 nM and 486 nM, the GI50 (LOX IMVI melanoma) was 2.85 nM and the TGI (LOX IMVI melanoma) was 150 nM and 58.6 nM. It also gave a TGI (HOP-18 NSCLC) of 7.97 nM, a GI50 (HOP-92 NSCLC) of 18.8 nM and a TGI (HOP-92 NSCLC) of 65.2 nM. The GI50 (HL-60(TB) leukemia) was 35.2 nM and 25.1 nM, the TGI (HL-60(TB) leukemia) was 195 nM and the GI50 (MALME-3M melanoma) was 13.2 nM. The TGI (MALME-3M melanoma) was 7.68 nM and 30.9 nM, the GI50 (NCI-H226 lung) was under 1 nM and the TGI (CAKI-1 renal) was 33.5 nM. For the same compound, the TGI (SNB-75 CNS) was 13.1 nM and 54.9 nM, the GI50 (M14 melanoma) was 15.8 nM and the TGI (M14 melanoma) was 28.8 nM and 38.1 nM. It also gave a GI50 (SW-620 colon) of 13.8 nM, a TGI (PC-3 prostate) of 144 nM and a GI50 (SK-MEL-28 melanoma) of 22.1 nM. For the same compound, the TGI (SK-MEL-28 melanoma) was 16.8 nM and 59.2 nM, the GI50 (HCT-15 colon) was 53.6 nM and the TGI (HCT-15 colon) was 515 nM and 1360 nM. It also gave a GI50 (DMS 114 small cell lung) of under 1 nM and a TGI (ACHN renal) of 122 nM.
